Measurements from article PMC6445123 (Scientific Reports, 2019).

Legend:
[1] = target: T1, recombinant active Casp6 (Homo sapiens, UniProt P55212, INS179NQTEKLDTNITEVD); experiment: Colorimetric Ac-VEID-pNA cleavage assay; type: biochemical; conditions: 100 µM compound, 200 µM Ac-VEID-pNA, 200 nM Casp6
T1 construct: generating mainly large subunit with a linker (LS-L), small subunit (SS), and a minor amount of large subunit (LS); His (C); made in house; host or cells: E. coli BL21(DE3)pLysS
T1 sequence (P55212 24-193 limits assumed): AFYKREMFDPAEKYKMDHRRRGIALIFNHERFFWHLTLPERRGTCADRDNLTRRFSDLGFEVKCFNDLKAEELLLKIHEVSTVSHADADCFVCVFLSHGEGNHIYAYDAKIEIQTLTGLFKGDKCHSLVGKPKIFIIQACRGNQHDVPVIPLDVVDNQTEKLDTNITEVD
T1 sequence (P55212 194-293 limits assumed): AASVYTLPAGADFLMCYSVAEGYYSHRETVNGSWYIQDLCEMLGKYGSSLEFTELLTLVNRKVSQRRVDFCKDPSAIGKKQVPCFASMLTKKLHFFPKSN
Protocol: To assess the potency of in silico hits, a fluorescence-based Ac-VEID-AFC cleavage assay was used to measure recombinant active Casp6 reaction rate in the absence or presence of 100 µM concentration of compounds. A 30% inhibition cut off was arbitrarily chosen for further investigation of putative inhibitors. […] AFC signal interference by compound intrinsic fluorescence was ruled out (Fig. S4). Casp6 inhibition was confirmed for seven compounds (C7, C13, C14, S2, S10, S11 and S13) using a colorimetric Ac-VEID-pNA cleavage assay (Table 2, Fig. S3).
In fluorescence-based Casp6 activity assay, 10 µM Ac-VEID-AFC was added to 20 nM Casp6 in SB with 100 μM compound and 1% dimethyl sulfoxide (DMSO), and reaction rate was measured for 20 min at 37 °C as above. Compound potency was calculated by normalising Ac-VEID-AFC cleavage rate to 1% DMSO control. In colorimetric Casp6 activity assay, 200 µM Ac-VEID-pNA (N-acetyl-Val-Glu-Ile-Asp-p-nitroanilide, Enzo Life Sciences) was added to 200 nM Casp6 in SB with 100 μM compound, and Ac-VEID-pNA cleavage rate was measured at 37 °C for 30 min in clear 96-well plate (Sartstedt, Nümbrecht, Germany) using Synergy H4 plate reader at 405 nm. Absorbance was converted to the released pNA amount based on a standard curve of 0–250 µM pNA. Cleavage rates were calculated from the linear assay phase and were normalised to 1% DMSO control. In Casp6-C163A cleavage assay, 0.5 ng/µl Casp6-WT was preincubated with 100 µM inhibitor, 5 µM Q-VD-OPh or 1% DMSO in SB (30 min, RT), followed by transfer on ice, addition of 0.5 µg/µl Casp6-C163A, and incubation (37 °C, 5, 10 and 15 min). Reactions were stopped by adding SDS-PAGE sample buffer (62.5 mM Tris pH 6.8, 2% SDS, 0.1 M DTT, 0.01% Bromphenol Blue, 10% glycerol) and heating (5 min, 95 °C). Samples (2 µl) were analysed on 15% SDS-PAGE gels, proteins were stained with Coomassie blue, and gels were de-stained with 10% acetic acid. The intensities of protein bands were quantified from scanned gels using ImageJ. The band intensity of Casp6-C163A without a prodomain was plotted against the time and the Casp6-C163A cleavage rates were calculated from the slopes of linear plots. The % activity of Casp6-WT in the presence of inhibitors was calculated relative to DMSO control.

[2] = target: T2, Casp6 (Homo sapiens, UniProt P55212, INS179NQTEKLDTNITEVD); experiment: Determination of inhibition mechanism and Ki (Michaelis-Menten, Lineweaver-Burk plots); type: biochemical
T2 construct: generating mainly large subunit with a linker (LS-L), small subunit (SS), and a minor amount of large subunit (LS); His (C); made in house; host or cells: E. coli BL21(DE3)pLysS
T2 sequence (P55212 24-193 limits assumed): T1 sequence (P55212 24-193 limits assumed)
T2 sequence (P55212 194-293 limits assumed): T1 sequence (P55212 194-293 limits assumed)
Protocol: The inhibition of Casp6 activity with S10G and C13 was reversible (Fig. S5). To determine mode of inhibition, kinetic analyses were conducted on Casp6 using S10G and C13 (Fig. 4a). […] (Fig. 4b).
Compounds, S10G (2.5 µM, 4.2 µM, 10 µM), and C13 (5 µM, 14 µM, 50 µM), were added to 20 nM active site titrated Casp6 and enzyme activity was measured with eight different Ac-VEID-AFC substrate concentrations (5.0 μM–200 μM) using fluorescence-based Casp6 activity assay as above. The apparent KM and Vmax values were determined through nonlinear regression analysis of Michaelis-Menten plots (v vs. [S]) using GraphPad Prism 5. The inhibition mode was determined from the pattern of converging Lineweaver-Burk plots (1/v vs. 1/[S])[54]. The dissociation constant (Ki) for Casp6-inhibitor complex was determined from the x-axis intercept (which is equal to −Ki) in the plot of Lineweaver-Burk slopes vs. inhibitor concentration. Alternatively, inhibition model and Ki were determined by global fit of kinetic data to the competitive, noncompetitive, noncompetitive (mixed) or uncompetitive inhibition models using respective equations in GraphPad Prism 5.

COC(=O)c1cc(CNC(=O)C2Cc3ccccc3O2)cc(NC(=O)c2ccco2)c1 (stereo not drawn) [Compound C13]
inhibition at 100 µM [1]: 86.7%
mode of inhibition ([2]; Lineweaver-Burk plot pattern): noncompetitive inhibition
Ki ([2]; from plot of Lineweaver-Burk slopes vs inhibitor concentration, Casp6, Ac-VEID-AFC, read-out: Ki (dissociation constant)): 5.3 µM
